{"source": "patent EP3838286B1", "about": "“ANTIMICROBIAL PEPTIDE FROM POLISTES GALLICUS VENOM AND ITS ANALOGS” (Latoxan, priority 2019, dated 2021)", "key": {"[1]": {"system": "P. aeruginosa"}, "[2]": {"system": "H. pylori"}, "[3]": {"system": "S. flexneri"}, "[4]": {"system": "A. gandavensis"}, "[5]": {"system": "L. lactis"}, "[6]": {"system": "E. coli EHEC K88"}, "[7]": {"system": "Pseudomonas aeruginosa", "experiment": "Stability of the peptides to proteases and human serum (MIC of digested peptides)", "type": "in vitro ADME", "conditions": "against Pseudomonas aeruginosa", "method": "In order to evaluate the stability of the peptides to condition they will face in vivo, their resistance to proteases and human serum was evaluated (Oyama et al., 2017 Biofilms Microbiomes, Dec 1;3:33). Briefly, one volume of peptides (at 1 mM) was diluted in one volume of proteases (Pepsin, Trypsin, Chymotrypsin, Papain all from Sigma Aldrich and diluted at 2 mg/ml in HCl 10 mM pH2 for Pepsin, PBS pH 7 for Trypsin and Chymotrysin and PBS pH 6 for Papain) or human serum (Sigma Aldrich H4522). Peptides incubated in the same conditions in PBS were used as controls. After 4 h (for proteases) and 4 or 24 h (for human serum) of incubation at 37°C, PMSF was added to the reaction mixture at a final concentration of 100 µM to stop the digestion. MIC of the digested peptides were then determined as explained above."}, "[8]": {"system": "C. rodentium"}, "[9]": {"system": "S. enterica"}, "[10]": {"system": "MiaPaCa-2", "experiment": "Antitumor / antiproliferative activity (resazurin)", "type": "cell-based, human", "conditions": "pancreas cancer cells; 5,000 cells/well; 48 h; read-out: IC50 antiproliferative effect MiaPaCa-2", "method": "(§1) Human cancer cell lines (Mia PaCa-2 (CRL-1420), PC-3 (CRL-1435), MDA-MB-231 (HTB-26)) and normal lung fibrobasts (BEAS-2B (ATCC CRL-9609) and IMR-90 (ATCC CCL-186)) were obtained from American Type Culture Collection (ATCC). HUVEC cells were obtained from Sigma Aldrich and were grown in defined all-in-one ready to use endothelial cell growth medium (Sigma Aldrich). Other cells were cultured in Dulbecco's modified Eagle's medium (DMEM, Gibco Life Technologies) supplemented with 10% heat-inactivated fetal calf serum (FCS, Lonza) at 37 °C in an incubator containing 5% CO2. Cells were sub-cultured in new media every 3-4 days. Antiproliferative / antitumor effects of the peptides were measured as previously described (Borie et al., Eur J Med Chem. 2018;148:306-313). Briefly, cells were detached from growing flask using trypsin, cells were counted and seeded in 96 well-plates in the growth media at an initial cell density of 5000 cells/well. Cells were left for 4 h to attach to the wells. Cells were then treated with increasing concentrations of peptides diluted in culture media. After 48 h incubation at 37 °C in a 5% CO2 incubator, wells were emptied and cell number was evaluated using Resazurin based in vitro toxicity assay kit (from Sigma-Aldrich) following manufacturer's instructions. Briefly, Resazurin stock solution was diluted 1:10 in sterile PBS containing calcium and magnesium (PBS, pH 7.4) and empty wells were filled with 100 µL of the diluted solution. After 4 h incubation at 37 °C, fluorescence intensity was measured using microplate reader (Synergy Mx, Biotek) with an excitation wavelength of 530 nm and an emission wavelength of 590 nm. The fluorescence values were normalized by the controls (buffer treated cells) and expressed as per-cent viability. The IC50 values of peptides on cell division / proliferation (i.e. the concentration of derivative causing a reduction of 50% of cell division) were determined using GraphPad ® Prism 7 software. t-Test and two way ANOVA analyses were used to address the significant differences between mean values with significance set at p < 0.05."}, "[11]": {"system": "PC-3", "experiment": "Antitumor / antiproliferative activity (resazurin)", "type": "cell-based, human", "conditions": "prostate cancer cells; 5,000 cells/well; 48 h; read-out: IC50 antiproliferative effect PC-3", "method": "as §1"}, "[12]": {"system": "MDA-MB-231", "experiment": "Antitumor / antiproliferative activity (resazurin)", "type": "cell-based, human", "conditions": "breast cancer cells; 5,000 cells/well; 48 h; read-out: IC50 antiproliferative effect MDA-MB-231", "method": "as §1"}, "[13]": {"system": "B. subtilis (Nisin-resistant)"}, "[14]": {"system": "M. smegmatis", "conditions": "72 h"}, "[15]": {"experiment": "Cytotoxicity assay (resazurin)", "type": "cell-based", "conditions": "human", "method": "Normal human cells used were BEAS-2B (ATCC CRL-9609), IMR-90 (ATCC CCL-186) and Human Umbilical Vein Endothelial Cells (HUVEC) (from Sigma-Aldrich) corresponding respectively to human normal lung epithelial, normal lung fibroblast cells and human normal endothelial cells. All cells except HUVEC cells were cultured in Dulbecco's modified essential medium (DMEM) supplemented with 10% fetal calf serum (FCS), 1% L-glutamine and 1% antibiotics (all from Invitrogen). HUVEC cells were cultured in specific endothelial media (from Sigma Aldrich). Cells were seeded onto […] maintained in a 5% CO2 incubator at 37 °C. Cells grown on 25 cm^2 flasks were detached using trypsin-EDTA solution (from Thermofisher), counted using Mallassez counting chamber and seeded into 96-well cell culture plates (Greiner bio-one) at approximately 10,000 cells per well. The cells were left to grow for 48-72 h at 37 °C in a 5% CO2 incubator until they reached confluence. Plates were then aspirated and increasing concentrations of peptides diluted in culture media were added to the cells for 48 h at 37 °C in a 5% CO2 incubator. At the end of the incubation, wells were emptied and cell viability was evaluated using Resazurin based in vitro toxicity assay kit (from Sigma-Aldrich) following manufacturer's instructions. Briefly, Resazurin stock solution was diluted 1:10 in sterile PBS containing calcium and magnesium (PBS, pH 7.4) and empty wells were filled with 100 µL of the diluted solution. After 4 h incubation at 37 °C, fluorescence intensity was measured using microplate reader (Synergy Mx, Biotek) with an excitation wavelength of 530 nm and an emission wavelength of 590 nm. The fluorescence values were normalized by the controls (buffer treated cells) and expressed as percent viability. The IC50 values of peptides on cell viability (i.e. the concentration of derivative causing a reduction of 50% of cell viability) were determined using GraphPad® Prism 7 software. t-Test and two way ANOVA analyses were used to address the significant differences between mean values with significance set at p < 0.05."}, "[16]": {"system": "P. aeruginosa 01"}, "[17]": {"system": "C. farmeri"}, "[18]": {"system": "A.baumani"}, "[19]": {"system": "V. alginolyticus"}, "[20]": {"system": "P. aeruginosa FQR"}, "[21]": {"system": "B. subtilis", "experiment": "Selection for resistant bacteria (serial passaging)", "type": "cell-based", "conditions": "daily exposure at sub-MIC levels, 30 days; antibiotic: after 10 days", "method": "To evaluate if populations of AMP-resistant bacteria could be selected, cultures were continuously exposed to LTX-gallicune-1 (I1N1) and LTX-gallicune-2(R1W8) peptides for a duration of 30 days, as previously described (Oyama et al., 2017 Biofilms Microbiomes, Dec 1;3:33). Briefly, broth microdilution susceptibility testing was performed using a standard doubling-dilution series of gallicune peptides concentrations on day 1. Following incubation of the cultures for 24 h, and determination of the MIC, the well that contained the highest concentration of AMPs permitting growth was diluted 1: 1000 in MH and used to provide the inoculum for the next MIC assay; this process was repeated daily for 30 days."}, "[22]": {"system": "P. aeruginosa", "experiment": "Antimicrobial tests (MIC/MBC, two-fold serial dilution)", "type": "cell-based, Pseudomonas aeruginosa (ATCC 9037)", "conditions": "Table 3; n=4"}}, "note": "Where two headings read alike, the source gives them in different places. Square brackets hold non-standard residues; d marks the D form. Peptide text beside a SMILES is read from it.", "data": [{"compound": "CC[C@@H](C)[C@@H](N)C(=O)N[C@@H](CC(C)C)C(=O)N[C@@H](CCCCN)C(=O)N[C@@H](C)C(=O)N[C@H](C(=O)N[C@@H](CCCCN)C(=O)N[C@@H](CCCCN)C(=O)N[C@@H](CC(C)C)C(=O)N[C@@H](CC(C)C)C(=O)N[C@@H](CCCCN)C(=O)N[C@H](CC(N)=O)C(N)=O)[C@@H](C)CC", "note": "[LTX-gallicune-1(i1D-n11D)] (H-[dI]LKAIKKLLK[dN]-NH2)", "values": [{"measurement": "MBC (µM) P. aeruginosa", "setting": "[1]", "value": 1.5, "unit": "µM"}, {"measurement": "MIC (µM) P. aeruginosa", "setting": "[1]", "value": 1.5, "unit": "µM"}, {"measurement": "MIC PA", "setting": "[1]", "value": 1.5, "unit": "µM"}, {"measurement": "MBC (µM) H. pylori", "setting": "[2]", "value": 25, "unit": "µM"}, {"measurement": "MIC (µM) H. pylori", "setting": "[2]", "value": 25, "unit": "µM"}, {"measurement": "MBC (µM) S. flexneri", "setting": "[3]", "value": 12.5, "unit": "µM"}, {"measurement": "MIC (µM) S. flexneri", "setting": "[3]", "value": 12.5, "unit": "µM"}, {"measurement": "MBC (µM) A. gandavensis", "setting": "[4]", "value": 1.5, "unit": "µM"}, {"measurement": "MIC (µM) A. gandavensis", "setting": "[4]", "value": 1.5, "unit": "µM"}, {"measurement": "MBC (µM) L. lactis", "setting": "[5]", "value": 0.78, "unit": "µM"}, {"measurement": "MIC (µM) L. lactis", "setting": "[5]", "value": 1.5, "unit": "µM"}, {"measurement": "MBC (µM) E. coli EHEC K88", "setting": "[6]", "value": 50, "unit": "µM"}, {"measurement": "MIC (µM) E. coli EHEC K88", "setting": "[6]", "value": 25, "unit": "µM"}, {"measurement": "MIC (µM) Serum4h", "setting": "[7]; after 4 h at 37°C in human serum", "value": ">50", "unit": "µM"}, {"measurement": "MIC (µM) Chymotrypsin", "setting": "[7]; after 4 h at 37°C with chymotrypsin, pH 7", "value": ">50", "unit": "µM"}, {"measurement": "MIC (µM) Pepsin", "setting": "[7]; after 4 h at 37°C with pepsin, pH2", "value": ">50", "unit": "µM"}, {"measurement": "MIC (µM) Trypsin", "setting": "[7]; after 4 h at 37°C with trypsin, pH 7", "value": ">50", "unit": "µM"}, {"measurement": "MIC (µM) Serum24h", "setting": "[7]; after 24 h at 37°C in human serum", "value": 25, "unit": "µM"}, {"measurement": "MIC (µM) Control", "setting": "[7]; peptide incubated in PBS, not treated with proteases", "value": 3.125, "unit": "µM"}, {"measurement": "MBC (µM) C. rodentium", "setting": "[8]", "value": 25, "unit": "µM"}, {"measurement": "MIC (µM) C. rodentium", "setting": "[8]", "value": 25, "unit": "µM"}, {"measurement": "MBC (µM) S. enterica", "setting": "[9]", "value": 25, "unit": "µM"}, {"measurement": "MIC (µM) S. enterica", "setting": "[9]", "value": 25, "unit": "µM"}, {"measurement": "IC50", "setting": "[10]", "value": 4.61, "unit": "µM"}, {"measurement": "IC50", "setting": "[11]", "value": 32.3, "unit": "µM"}, {"measurement": "IC50", "setting": "[12]", "value": 75.6, "unit": "µM"}, {"measurement": "MBC (µM) B. subtilis (Nisin-resistant)", "setting": "[13]", "value": 6.25, "unit": "µM"}, {"measurement": "MIC (µM) B. subtilis (Nisin-resistant)", "setting": "[13]", "value": 6.25, "unit": "µM"}, {"measurement": "MIC (µM) M. smegmatis", "setting": "[14]", "value": 25, "unit": "µM"}, {"measurement": "CC50 at 48 h", "setting": "[15]; BEAS-2B normal lung epithelial cells, normal lung epithelium, read-out: Cytotoxicity IC50 (µM) BEAS", "value": 391, "unit": "µM"}, {"measurement": "CC50 at 48 h", "setting": "[15]; HUVEC (human umbilical vein endothelial cells), normal endothelium, read-out: Cytotoxicity IC50 (µM) HUVEC", "value": 436, "unit": "µM"}, {"measurement": "CC50 at 48 h", "setting": "[15]; IMR-90 normal lung fibroblast cells, read-out: Cytotoxicity IC50 (µM) IMR90", "value": 362, "unit": "µM"}, {"measurement": "MBC (µM) P. aeruginosa 01", "setting": "[16]", "value": 12.5, "unit": "µM"}, {"measurement": "MIC (µM) P. aeruginosa 01", "setting": "[16]", "value": 6.25, "unit": "µM"}, {"measurement": "MBC (µM) C. farmeri", "setting": "[17]", "value": 12.5, "unit": "µM"}, {"measurement": "MIC (µM) C. farmeri", "setting": "[17]", "value": 6.25, "unit": "µM"}, {"measurement": "MIC (µM) A.baumani", "setting": "[18]", "value": 12.5, "unit": "µM"}, {"measurement": "MBC (µM) V. alginolyticus", "setting": "[19]", "value": 0.78, "unit": "µM"}, {"measurement": "MIC (µM) V. alginolyticus", "setting": "[19]", "value": 0.78, "unit": "µM"}, {"measurement": "MBC (µM) P. aeruginosa FQR", "setting": "[20]", "value": 25, "unit": "µM"}, {"measurement": "MIC (µM) P. aeruginosa FQR", "setting": "[20]", "value": "6.25 to 12.5", "unit": "µM"}]}, {"compound": "C/C(=C\\C(=O)OCCCCCCCCC(=O)O)C[C@@H]1OC[C@H](C[C@@H]2O[C@H]2[C@@H](C)[C@H](C)O)[C@@H](O)[C@H]1O", "note": "[Mupirocin]", "values": [{"measurement": "change of MIC against B. subtilis on serial passaging (resistance acquisition)", "setting": "[21]", "value": "increasing"}]}, {"compound": "Gentamycine", "values": [{"measurement": "MIC", "setting": "[22]", "value": 0.3, "unit": "µM"}]}]}
